Results reported in publication PMC6979384, “Characterization of the plant homeodomain (PHD) reader family for their histone tail interactions” (Epigenetics & Chromatin, 2020).
Where no end group is shown, it is not given here. [ ]: non-standard residue; d: D form. Lys(Me3) = C[N+](C)(C)CCCC[C@H](N)C(=O)O; Me3 = trimethyl (on lysine side chain); Lys(Me) = CNCCCC[C@H](N)C(=O)O

Tests used:
Assay in all cases: Histone peptide microarray
Assay type in all cases: binding, human
Details in all cases: sheet "Array Heatmap"
[1] = tested on: ING2
Method in brief: (§1)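 Histone peptide library (293 synthetic peptides, single/combinatorial PTMs) arrayed and probed with 0.5 μM purified GST-PHD domain; optimized protocol; quadruplicate mean and SD reported.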

[2] = tested on: MLL5
Method in brief: as §1

[3] = tested on: PHF13
Method in brief: as §1

[4] = tested on: MORC3 (CW)
Method in brief: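 Each reader, produced as a GST fusion and purified, was tested at 0.5 μM on synthetic histone peptides (293 in total) carrying single or combinatorial marks. Intensities averaged over four replicates.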

[5] = tested on: DPF2 (PPC2W2)
Method in brief: as §1

[6] = tested on: KDM5A (3)
Method in brief: as §1

[7] = tested on: TAF3
Method in brief: as §1

[8] = tested on: KDM5B (3)
Method in brief: as §1

[9] = tested on: CHD5 (PPCC)
Method in brief: as §1

[10] = tested on: BAZ2B
Method in brief: as §1

[11] = tested on: ING5
Method in brief: as §1

[12] = tested on: PHF23
Method in brief: as §1

[13] = tested on: PHF2
Method in brief: as §1

[14] = tested on: ING3
Method in brief: as §1

[15] = tested on: AIRE (PP)
Method in brief: as §1

[16] = tested on: ING4
Method in brief: as §1

[17] = tested on: BPTF (PB)
Method in brief: as §1

[18] = tested on: PHF21A
Method in brief: as §1

[19] = tested on: TRIM66 (PB)
Method in brief: as §1

[20] = tested on: CHD4 (PPCC)
Method in brief: as §1

[21] = tested on: RAG2
Method in brief: as §1

[22] = tested on: PHF8
Method in brief: as §1

[23] = tested on: PHRF1 (RP)
Method in brief: as §1

[24] = tested on: SP140L
Method in brief: as §1

[25] = tested on: DIDO1
Method in brief: as §1

[26] = tested on: KDM4C (TTP)
Method in brief: as §1

[27] = tested on: CHD5 (PCC)
Method in brief: as §1

[28] = tested on: ING1
Method in brief: as §1

[29] = tested on: KDM5A (1)
Method in brief: as §1

[30] = tested on: KDM5B (1)
Method in brief: as §1

[31] = tested on: KDM7A
Method in brief: as §1

[32] = GST-tagged reader, histone peptide array, total n = 4

## H3K56me3 (52-61): H3 52-61 (RRYQK(Me3)STELL; UniProt P68431 53-62, looked up, fragment)
[1]; GST-tagged ING2, arrays performed twice, total replicate number n = 4
  Array Heatmap signal, ING2: 0.5755
[2]; GST-tagged MLL5, arrays performed twice, total replicate number n = 4
  Array Heatmap signal, MLL5: 0.5095
[3]; GST-tagged PHF13, arrays performed twice, total replicate number n = 4
  Array Heatmap signal, PHF13: 0.5794
[4]; GST-tagged MORC3 (CW), arrays performed twice, total replicate number n = 4
  Array Heatmap signal, MORC3 (CW): 0.3573
[5]; GST-tagged DPF2 (PPC2W2), arrays performed twice, total replicate number n = 4
  Array Heatmap signal, DPF2 (PPC2W2): 0.6082
[6]; GST-tagged KDM5A (3), arrays performed twice, total replicate number n = 4
  Array Heatmap signal, KDM5A (3): 0.4564
[7]; GST-tagged TAF3, arrays performed twice, total replicate number n = 4
  Array Heatmap signal, TAF3: 0.2469
[8]; GST-tagged KDM5B (3), arrays performed twice, total replicate number n = 4
  Array Heatmap signal, KDM5B (3): 0.4529
[9]; GST-tagged CHD5 (PPCC), arrays performed twice, total replicate number n = 4
  Array Heatmap signal, CHD5 (PPCC): 0.5162
[10]; GST-tagged BAZ2B, arrays performed twice, total replicate number n = 4
  Array Heatmap signal, BAZ2B: 0.4232
[11]; GST-tagged ING5, arrays performed twice, total replicate number n = 4
  Array Heatmap signal, ING5: 0.3269
[12]; GST-tagged PHF23, arrays performed twice, total replicate number n = 4
  Array Heatmap signal, PHF23: 0.5132
[13]; GST-tagged PHF2, arrays performed twice, total replicate number n = 4
  Array Heatmap signal, PHF2: 0.4592
[14]; GST-tagged ING3, arrays performed twice, total replicate number n = 4
  Array Heatmap signal, ING3: 0.4641
[15]; GST-tagged AIRE (PP), arrays performed twice, total replicate number n = 4
  Array Heatmap signal, AIRE (PP): 0.4132
[16]; GST-tagged ING4, arrays performed twice, total replicate number n = 4
  Array Heatmap signal, ING4: 0.4217
[17]; GST-tagged BPTF (PB), arrays performed twice, total replicate number n = 4
  Array Heatmap signal, BPTF (PB): 0.343
[18]; GST-tagged PHF21A, arrays performed twice, total replicate number n = 4
  Array Heatmap signal, PHF21A: 0.4399
[19]; GST-tagged TRIM66 (PB), arrays performed twice, total replicate number n = 4
  Array Heatmap signal, TRIM66 (PB): 0.5682
[20]; GST-tagged CHD4 (PPCC), arrays performed twice, total replicate number n = 4
  Array Heatmap signal, CHD4 (PPCC): 0.5342
[21]; GST-tagged RAG2, arrays performed twice, total replicate number n = 4
  Array Heatmap signal, RAG2: 0.2347
[22]; GST-tagged PHF8, arrays performed twice, total replicate number n = 4
  Array Heatmap signal, PHF8: 0.3607
[23]; GST-tagged PHRF1 (RP), arrays performed twice, total replicate number n = 4
  Array Heatmap signal, PHRF1 (RP): 0.4158
[24]; GST-tagged SP140L, arrays performed twice, total replicate number n = 4
  Array Heatmap signal, SP140L: 0.3549
[25]; GST-tagged DIDO1, arrays performed twice, total replicate number n = 4
  Array Heatmap signal, DIDO1: 0.6681
[26]; GST-tagged KDM4C (TTP), arrays performed twice, total replicate number n = 4
  Array Heatmap signal, KDM4C (TTP): 0.4664
[27]; GST-tagged CHD5 (PCC), arrays performed twice, total replicate number n = 4
  Array Heatmap signal, CHD5 (PCC): 0.7613
[28]; GST-tagged ING1, arrays performed twice, total replicate number n = 4
  Array Heatmap signal, ING1: 0.5013
[29]; GST-tagged KDM5A (1), arrays performed twice, total replicate number n = 4
  Array Heatmap signal, KDM5A (1): 0.4335
[30]; GST-tagged KDM5B (1), arrays performed twice, total replicate number n = 4
  Array Heatmap signal, KDM5B (1): 0.6393
[31]; GST-tagged KDM7A, arrays performed twice, total replicate number n = 4
  Array Heatmap signal, KDM7A: 0.3588

## H3K79me1: H3 74-84 (IAQDF[Lys(Me)]TDLRF; UniProt P68431 75-85, looked up, fragment) [Peptide H3K79me1]
[1]; [32]
  Array Heatmap signal, ING2: 0.6117
[2]; [32]
  Array Heatmap signal, MLL5: 0.6083
[3]; [32]
  Array Heatmap signal, PHF13: 0.6611
[4]; [32]
  Array Heatmap signal, MORC3 (CW): 0.4301
[5]; [32]
  Array Heatmap signal, DPF2 (PPC2W2): 0.6501
[6]; [32]
  Array Heatmap signal, KDM5A (3): 0.5745
[7]; [32]
  Array Heatmap signal, TAF3: 0.2923
[8]; [32]
  Array Heatmap signal, KDM5B (3): 0.5123
[9]; [32]
  Array Heatmap signal, CHD5 (PPCC): 0.6031
[10]; [32]
  Array Heatmap signal, BAZ2B: 0.4958
[11]; [32]
  Array Heatmap signal, ING5: 0.4005
[12]; [32]
  Array Heatmap signal, PHF23: 0.5609
[13]; [32]
  Array Heatmap signal, PHF2: 0.4403
[14]; [32]
  Array Heatmap signal, ING3: 0.5268
[15]; [32]
  Array Heatmap signal, AIRE (PP): 0.5028
[16]; [32]
  Array Heatmap signal, ING4: 0.4724
[17]; [32]
  Array Heatmap signal, BPTF (PB): 0.3836
[18]; [32]
  Array Heatmap signal, PHF21A: 0.4933
[19]; [32]
  Array Heatmap signal, TRIM66 (PB): 0.6065
[20]; [32]
  Array Heatmap signal, CHD4 (PPCC): 0.5797
[21]; [32]
  Array Heatmap signal, RAG2: 0.2827
[22]; [32]
  Array Heatmap signal, PHF8: 0.4078
[23]; [32]
  Array Heatmap signal, PHRF1 (RP): 0.4478
[24]; [32]
  Array Heatmap signal, SP140L: 0.3558
[25]; [32]
  Array Heatmap signal, DIDO1: 0.782
[26]; [32]
  Array Heatmap signal, KDM4C (TTP): 0.5424
[27]; [32]
  Array Heatmap signal, CHD5 (PCC): 0.8253
[28]; [32]
  Array Heatmap signal, ING1: 0.5242
[29]; [32]
  Array Heatmap signal, KDM5A (1): 0.5083
[30]; [32]
  Array Heatmap signal, KDM5B (1): 0.6942
[31]; [32]
  Array Heatmap signal, KDM7A: 0.422

## H3K79me3: H3 74-84 (IAQDF[Lys(Me3)]TDLRF; UniProt P68431 75-85, looked up, fragment) [Peptide H3K79me3]
[1]; [32]
  Array Heatmap signal, ING2: 0.6086
[2]; [32]
  Array Heatmap signal, MLL5: 0.5385
[3]; [32]
  Array Heatmap signal, PHF13: 0.6042
[4]; [32]
  Array Heatmap signal, MORC3 (CW): 0.3856
[5]; [32]
  Array Heatmap signal, DPF2 (PPC2W2): 0.6998
[6]; [32]
  Array Heatmap signal, KDM5A (3): 0.4757
[7]; [32]
  Array Heatmap signal, TAF3: 0.2594
[8]; [32]
  Array Heatmap signal, KDM5B (3): 0.4402
[9]; [32]
  Array Heatmap signal, CHD5 (PPCC): 0.5544
[10]; [32]
  Array Heatmap signal, BAZ2B: 0.458
[11]; [32]
  Array Heatmap signal, ING5: 0.3656
[12]; [32]
  Array Heatmap signal, PHF23: 0.5318
[13]; [32]
  Array Heatmap signal, PHF2: 0.5812
[14]; [32]
  Array Heatmap signal, ING3: 0.4762
[15]; [32]
  Array Heatmap signal, AIRE (PP): 0.4525
[16]; [32]
  Array Heatmap signal, ING4: 0.4605
[17]; [32]
  Array Heatmap signal, BPTF (PB): 0.3567
[18]; [32]
  Array Heatmap signal, PHF21A: 0.4782
[19]; [32]
  Array Heatmap signal, TRIM66 (PB): 0.557
[20]; [32]
  Array Heatmap signal, CHD4 (PPCC): 0.5886
[21]; [32]
  Array Heatmap signal, RAG2: 0.2475
[22]; [32]
  Array Heatmap signal, PHF8: 0.3681
[23]; [32]
  Array Heatmap signal, PHRF1 (RP): 0.4811
[24]; [32]
  Array Heatmap signal, SP140L: 0.3582
[25]; [32]
  Array Heatmap signal, DIDO1: 0.7358
[26]; [32]
  Array Heatmap signal, KDM4C (TTP): 0.4877
[27]; [32]
  Array Heatmap signal, CHD5 (PCC): 0.767
[28]; [32]
  Array Heatmap signal, ING1: 0.5877
[29]; [32]
  Array Heatmap signal, KDM5A (1): 0.4539
[30]; [32]
  Array Heatmap signal, KDM5B (1): 0.6382
[31]; [32]
  Array Heatmap signal, KDM7A: 0.3373
